The results in this text go back to patent publication US8022215B2, “Fused pyridone M1 receptor positive allosteric modulators” (Merck Sharp & Dohme Corp., priority 2008, dated 2011).

Each structure is given as a SMILES string.

The target in one test is T1, acetylcholine muscarinic M1 receptor (Homo sapiens, UniProt P11229).
T1 construct: expressed in transfected cells; host or cells: CHOnfat (CHO cells, Geneticin selection)
T1 sequence (P11229 1-460): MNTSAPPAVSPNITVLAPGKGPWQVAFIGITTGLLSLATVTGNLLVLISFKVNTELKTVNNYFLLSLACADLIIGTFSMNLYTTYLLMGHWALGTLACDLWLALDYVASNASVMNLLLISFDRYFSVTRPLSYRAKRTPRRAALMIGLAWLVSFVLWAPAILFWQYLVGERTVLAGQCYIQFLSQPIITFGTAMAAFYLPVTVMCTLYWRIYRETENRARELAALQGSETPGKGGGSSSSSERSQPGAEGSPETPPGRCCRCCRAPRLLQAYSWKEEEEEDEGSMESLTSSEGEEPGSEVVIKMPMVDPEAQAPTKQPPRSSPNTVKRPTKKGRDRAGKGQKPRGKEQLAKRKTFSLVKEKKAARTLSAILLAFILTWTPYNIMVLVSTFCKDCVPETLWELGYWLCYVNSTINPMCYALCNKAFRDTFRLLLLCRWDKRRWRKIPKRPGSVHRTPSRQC
The test can be described thus: muscarinic FLIPR assay: potentiation of acetylcholine (EC20)-stimulated intracellular Ca2+ in CHOnfat/hM1 cells. The class given is cell-based.
Settings: not given
On the procedure:
The assay studies the effect of one or several concentrations of test compounds on basal or acetylcholine-stimulated Ca^2+ levels using FLIPR.
Compounds are prepared and subjected to a preincubation period of 4 min. Thereafter, a single EC20 concentration of acetylcholine is added to each well (3 nM final). The intracellular Ca^2+ level of each sample is measured and compared to an acetylcholine control to determine any modulatory activity.
Cells: CHOnfat/hM1, hM2, hM3 or hM4 cells are plated 24 hr before the assay at a density of 18,000 cells/well (100 μL) in a 384 well plate. CHOnfat/hM1 and CHOnfat/hM3 Growth Medium: 90% DMEM (Hi Glucose); 10% HI FBS; 2 mM L-glutamine; 0.1 mM NEAA; Pen-Strep; and 1 mg/ml Geneticin, are added. For M2Gqi5CHOnfat and M4Gqi5CHOnfat cells, an additional 600 μg/ml hygromycin is added.
Buffers. […] Dye Loading Buffer: Assay Buffer plus 1% Fetal Bovine Serum and Fluo-4AM/Pluronic Acid Mixture. […] 20% Pluronic Acid Solution stock, with a concentration of 0.04% in Buffer, 0.02% in Assay.
65 μL of 2 mM Fluo-4AM are mixed with 130 μL of 20% Pluronic Acid. The resulting solution and 650 μL FBS is added to the assay buffer for a total volume of 65 mL. Positive Controls: 4-Br-A23187: 10 mM in DMSO; final concentration 10 μM. Acetylcholine: 10 mM in water, working stock at both 20 μM and 30 μM in assay buffer, final concentration of 10 μM. This is used to check the maximum stimulation of the CHOK1/hM1 cells. 20 μM (2×) acetylcholine is added in the preincubation part of the assay, and the 30 μM (3×) stock is added in the second part. (EC20)Acetylcholine: 10 mM in water, working stock of 9 nM (3×), and final concentration in assay is 3 nM. This is used after the preincubation with test compounds. Addition of the EC20 acetylcholine to each well with a test compound will ascertain any modulator activity. 24 wells contain 3 nM acetylcholine alone as a control.
Determining Activity of Putative Compounds:
Four 96-well plates are combined into a 384-well plate using Mosquito Nanolitre Pipetting System by transferring 1 μl of serial diluted compounds to each well, and 1 mM acetylcholine (100× stock concentration) were added as a control. Using Temo, 49 μl assay buffer is added to each well of the 384-well plate right before assay.
In a 96-well Whatman 2 ml Uniplate, 9 nM acetylcholine (3×) is pipetted into wells corresponding to the screening compounds and into control wells. The 30 μM acetylcholine control (3×) is added into control wells and the 3× agonist plate is transferred into a 384-well plate.
Cells are washed three times with 100 μL of buffer, leaving 30 μL of buffer in each well. Using Multimek, 30 μL of Dye Loading Buffer is added into each well and incubated at 37° C., 5% CO2 for up to one hr.
After 60 min, the cells are washed three times with 100 μL of buffer, leaving 30 μL of buffer in each well. The cell plate, screening plate, and agonist addition plates are placed on the platform in the FLIPR and the door is closed. A signal test to check background fluorescence and basal fluorescence signal is performed. Laser intensity is adjusted if necessary.
4 min of preincubation with the test compounds is provided to determine any agonist activity on the M1 receptor by comparison to the 1 mM acetylcholine control. After preincubation, the EC20 value of acetylcholine (3 nM final) is added to determine any modulator activity.
The inflection point is calculated from the FLIPR values and is a measure of activity.
Turning to `COc1ccc(-c2ccc(Cn3cc(C(=O)O)c(=O)c4c3CCCC4O)cc2)cn1` (stereo not shown) [Example 53], the EC50 worked out at 323 nM. On the same count and under the same terms, in the case of `COc1ccccc1-c1ccc(Cn2cc(C(=O)O)c(=O)c3c2CCCC3O)cc1` (racemic) [Example 27, (±)-5-Hydroxy-1-[(2′-methoxybiphenyl-4-yl)methyl]-4-oxo-1,4,5,6,7,8-hexahydroquinoline-3carboxylic acid] it was 3140 nM; in that of `O=C(O)c1cn(Cc2ccc(-c3ccccc3)cc2)c2c(c1=O)C(NCc1ccccc1)CCC2` (stereo not shown) [Example 72], 2200 nM; in that of `O=C(O)c1cn(C/C=C/c2ccccc2F)c2c(c1=O)C(=O)CCC2` [Example 15, 1-[(2E)-3-(2-Fluorophenyl)prop-2-en-1-yl]-4,5-dioxo-1,4,5,6,7,8-hexahydroquinoline-3-carboxylic acid], 64000 nM. As to `CNC1CCCc2c1c(=O)c(C(=O)O)cn2Cc1ccc(-c2ccccc2)cc1` (stereo not shown) [Example 70], the EC50 amounted to 8370 nM. With `CCC1(O)CCCc2c1c(=O)c(C(=O)O)cn2Cc1ccc(-c2ccccc2)cc1` (racemic) [Example 68, (±)-1-(Biphenyl-4-ylmethyl)-5-ethyl-5-hydroxy-4-oxo-1,4,5,6,7,8-hexahydroquinoline-3-carboxylic acid], the EC50 worked out at 9050 nM.

For `N#Cc1ccc(-c2ccc(Cn3cc(C(=O)O)c(=O)c4c3CCCC4O)cc2)cc1` (stereo not shown) [Example 41], the EC50 is 318 nM. Turning to `O=C(O)c1cn(Cc2ccc(-c3ccccc3)cc2)c2c(c1=O)C(N1CCCC1)CCC2` (stereo not shown) [Example 73], the EC50 is 4100 nM. Consider `CCCCNC1CCCc2c1c(=O)c(C(=O)O)cn2Cc1ccc(-c2ccccc2)cc1` (stereo not shown) [Example 71], for which the EC50 was determined as 1500 nM. The same measure, in the same setting: for `O=C(O)c1cn(Cc2ccc(-c3ccccc3)cc2)c2c(c1=O)CCC2` [Example 1, 1-(Biphenyl-4-ylmethyl)-4-oxo-4,5,6,7-tetrahydro-1H-cyclopenta[b]pyridine-3-carboxylic acid] the value was 812 nM; for `Cn1ccc2cc(-c3ccc(Cn4cc(C(=O)O)c(=O)c5c4CCCC5O)nc3)ccc21` (stereo not shown) [Example 66], 199 nM. `COC1CCCc2c1c(=O)c(C(=O)O)cn2Cc1ccc(-c2ccccc2)cc1` (racemic) [Example 62, (±)-1-(Biphenyl-4-ylmethyl)-5-methoxy-4-oxo-1,4,5,6,7,8-hexahydroquinoline-3-carboxylic acid]: the EC50 was determined as 1100 nM.

The test is the same for the next values; noted with them: CHOnfat/hM1 cells, FLIPR, 4 min preincubation, then EC20 acetylcholine (3 nM final); read-out: IP Value (inflection point).
Regarding `O=C(O)c1cn(Cc2ccc(-c3ccccc3)cc2)c2c(c1=O)C(=O)CCC2` [Example 6], the EC50 is 806 nM.
